{"source": "ChEMBL document CHEMBL5316367", "about": "“Mass Spectrometry-Guided Discovery of Multi-N-Methylated Cyclodecapeptides Auyuittuqamides E-H from Sesquicillium sp. QL0466” (2023)", "assay_type_in_all_cases": "functional", "key": {"Enterococcus faecium [1]": {"test_system": "Enterococcus faecium", "assay": "Antimicrobial activity against vancomycin-sensitive Enterococcus faecium 160119481 assessed as inhibition of bacterial growth by microtiter plate reader assay"}, "Staphylococcus aureus [2]": {"test_system": "Staphylococcus aureus", "assay": "Antimicrobial activity against methicillin-resistant Staphylococcus aureus 11646 assessed as inhibition of bacterial growth by microtiter plate reader assay"}, "Enterococcus faecium [3]": {"test_system": "Enterococcus faecium", "assay": "Antimicrobial activity against vancomycin-resistant Enterococcus faecium 151458137 assessed as inhibition of bacterial growth by microtiter plate reader assay"}, "Escherichia coli": {"test_system": "Escherichia coli", "assay": "Antimicrobial activity against Escherichia coli ATCC 25922 assessed as inhibition of bacterial growth by microtiter plate reader assay"}, "Staphylococcus aureus [4]": {"test_system": "Staphylococcus aureus", "assay": "Antimicrobial activity against Staphylococcus aureus ATCC 6538 assessed as inhibition of bacterial growth by microtiter plate reader assay"}}, "data": [{"smiles": "CC[C@H](C)[C@@H]1NC(=O)CNC(=O)[C@H](CC(C)C)N(C)C(=O)[C@H]([C@@H](C)CC)NC(=O)[C@H]([C@@H](C)O)N(C)C(=O)[C@H](Cc2ccccc2)NC(=O)CNC(=O)[C@@H](CC(C)C)N(C)C(=O)[C@H]([C@@H](C)CC)NC(=O)[C@H](CO)NC1=O", "values": [{"measurement": "MIC", "setting": "Enterococcus faecium [1]", "result": 8, "unit": "µg/mL"}, {"measurement": "MIC", "setting": "Staphylococcus aureus [2]", "result": "> 128", "unit": "µg/mL"}, {"measurement": "MIC", "setting": "Enterococcus faecium [3]", "result": 8, "unit": "µg/mL"}, {"measurement": "MIC", "setting": "Escherichia coli", "result": "> 128", "unit": "µg/mL"}, {"measurement": "MIC", "setting": "Staphylococcus aureus [4]", "result": 8, "unit": "µg/mL"}]}, {"smiles": "CC[C@H](C)[C@@H]1NC(=O)CNC(=O)[C@H](CC(C)C)N(C)C(=O)[C@H]([C@@H](C)CC)NC(=O)[C@H]([C@@H](C)O)N(C)C(=O)[C@H](Cc2ccccc2)NC(=O)CNC(=O)[C@@H](CC(C)C)N(C)C(=O)[C@H](CC(C)C)NC(=O)[C@H](CO)NC1=O", "values": [{"measurement": "MIC", "setting": "Enterococcus faecium [1]", "result": 8, "unit": "µg/mL"}, {"measurement": "MIC", "setting": "Staphylococcus aureus [2]", "result": "> 128", "unit": "µg/mL"}, {"measurement": "MIC", "setting": "Enterococcus faecium [3]", "result": 8, "unit": "µg/mL"}, {"measurement": "MIC", "setting": "Escherichia coli", "result": "> 128", "unit": "µg/mL"}, {"measurement": "MIC", "setting": "Staphylococcus aureus [4]", "result": 8, "unit": "µg/mL"}]}, {"smiles": "NC[C@H]1O[C@H](O[C@H]2[C@H](O)[C@@H](O[C@H]3O[C@H](CO)[C@@H](O)[C@H](N)[C@H]3O)[C@H](N)C[C@@H]2N)[C@H](N)[C@@H](O)[C@@H]1O", "note": "[BEKANAMYCIN]", "values": [{"measurement": "MIC", "setting": "Escherichia coli", "result": 32, "unit": "µg/mL"}]}, {"smiles": "CC[C@H](C)[C@@H]1NC(=O)[C@H]([C@@H](C)O)N(C)C(=O)[C@H](Cc2ccccc2)NC(=O)CNC(=O)[C@@H](CC(C)C)N(C)C(=O)[C@H](CC(C)C)NC(=O)[C@H](CO)NC(=O)[C@H](CC(C)C)NC(=O)CNC(=O)[C@H](CC(C)C)N(C)C1=O", "values": [{"measurement": "MIC", "setting": "Enterococcus faecium [1]", "result": 8, "unit": "µg/mL"}, {"measurement": "MIC", "setting": "Staphylococcus aureus [2]", "result": "> 128", "unit": "µg/mL"}, {"measurement": "MIC", "setting": "Enterococcus faecium [3]", "result": 8, "unit": "µg/mL"}, {"measurement": "MIC", "setting": "Escherichia coli", "result": "> 128", "unit": "µg/mL"}, {"measurement": "MIC", "setting": "Staphylococcus aureus [4]", "result": 8, "unit": "µg/mL"}]}, {"smiles": "CC[C@H](C)[C@@H]1NC(=O)[C@H](CO)NC(=O)[C@H](CC(C)C)NC(=O)CNC(=O)[C@H](CC(C)C)N(C)C(=O)[C@H]([C@@H](C)CC)NC(=O)[C@H]([C@@H](C)O)N(C)C(=O)[C@H](Cc2ccccc2)NC(=O)CNC(=O)[C@@H](CC(C)C)N(C)C1=O", "values": [{"measurement": "MIC", "setting": "Enterococcus faecium [1]", "result": 8, "unit": "µg/mL"}, {"measurement": "MIC", "setting": "Staphylococcus aureus [2]", "result": "> 128", "unit": "µg/mL"}, {"measurement": "MIC", "setting": "Enterococcus faecium [3]", "result": 8, "unit": "µg/mL"}, {"measurement": "MIC", "setting": "Escherichia coli", "result": "> 128", "unit": "µg/mL"}, {"measurement": "MIC", "setting": "Staphylococcus aureus [4]", "result": 8, "unit": "µg/mL"}]}]}
